Test results taken from ChEMBL document CHEMBL3046832, “Synthesis of some sulfonamides, disubstituted sulfonylureas or thioureas and some structurally related variants. A class of promising antitumor agents” (2007).

Assays:
Type in all cases: functional
MDA-MB-435 = assay: Cytotoxicity against Homo sapiens (human) MDA-MB-435 cells after 48 hr by SRB assay; details: MDA-MB-435, 48 h
M14 = assay: Cytotoxicity against Homo sapiens (human) M14 cells after 48 hr by SRB assay; details: M14, 48 h
LOX IMVI = assay: Cytotoxicity against Homo sapiens (human) LOXIMVI cells after 48 hr by SRB assay
MCF7 [1] = assay: Cytotoxicity against Homo sapiens (human) MCF7 cells after 48 hr by SRB assay; details: MCF7, 48 h
MDA-MB-231 = assay: Cytotoxicity against Homo sapiens (human) MDA-MB-231 cells after 48 hr by SRB assay; details: MDA-MB-231, 48 h
UO-31 = assay: Cytotoxicity against Homo sapiens (human) UO31 cells after 48 hr by SRB assay; details: UO-31, 48 h
PC-3 = assay: Cytotoxicity against Homo sapiens (human) PC3 cells after 48 hr by SRB assay; details: PC-3, 48 h
RXF 393 = assay: Cytotoxicity against Homo sapiens (human) RXF393 cells after 48 hr by SRB assay; details: RXF 393, 48 h
786-0 = assay: Cytotoxicity against Homo sapiens (human) 786-0 cells after 48 hr by SRB assay; details: 786-0, 48 h
SK-OV-3 = assay: Cytotoxicity against Homo sapiens (human) SKOV3 cells after 48 hr by SRB assay; details: SK-OV-3, 48 h
OVCAR-5 = assay: Cytotoxicity against Homo sapiens (human) OVCAR5 cells after 48 hr by SRB assay; details: OVCAR-5, 48 h
IGROV-1 = assay: Cytotoxicity against Homo sapiens (human) IGROV1 cells after 48 hr by SRB assay; details: IGROV-1, 48 h
OVCAR-3 = assay: Cytotoxicity against Homo sapiens (human) OVCAR3 cells after 48 hr by SRB assay; details: OVCAR-3, 48 h
UACC-62 = assay: Cytotoxicity against Homo sapiens (human) UACC62 cells after 48 hr by SRB assay; details: UACC-62, 48 h
UACC-257 = assay: Cytotoxicity against Homo sapiens (human) UACC257 cells after 48 hr by SRB assay; details: UACC-257, 48 h
SK-MEL-5 = assay: Cytotoxicity against Homo sapiens (human) SK-MEL-5 cells after 48 hr by SRB assay; details: SK-MEL-5, 48 h
SK-MEL-2 = assay: Cytotoxicity against Homo sapiens (human) SK-MEL-2 cells after 48 hr by SRB assay; details: SK-MEL-2, 48 h
SK-MEL-28 = assay: Cytotoxicity against Homo sapiens (human) SK-MEL-28 cells after 48 hr by SRB assay; details: SK-MEL-28, 48 h
[2] = Cytotoxicity against Homo sapiens (human) breast cancer cells after 48 hr by SRB assay; details: Cancer cell lines
[3] = Cytotoxicity against Homo sapiens (human) prostate cancer cells after 48 hr by SRB assay; details: Cancer cell lines
[4] = Cytotoxicity against Homo sapiens (human) renal cancer cells after 48 hr by SRB assay; details: Cancer cell lines
[5] = Cytotoxicity against Homo sapiens (human) ovarian cancer cells after 48 hr by SRB assay; details: Cancer cell lines
[6] = Cytotoxicity against Homo sapiens (human) melanoma cells after 48 hr by SRB assay; details: Melanoma cell
[7] = Cytotoxicity against Homo sapiens (human) CNS cancer cells after 48 hr by SRB assay; details: Cancer cell lines
[8] = Cytotoxicity against Homo sapiens (human) colon cancer cells after 48 hr by SRB assay; details: Cancer cell lines
[9] = Cytotoxicity against Homo sapiens (human) non-small cell lung cancer cells after 48 hr by SRB assay; details: Cancer cell lines
[10] = Cytotoxicity against Homo sapiens (human) leukemia cells after 48 hr by SRB assay; details: Leukemia cell
SF-268 [11] = assay: Cytotoxicity against Homo sapiens (human) SF268 cells assessed as cellular growth after 48 hr by Alamar blue assay; design: concentration or dose not given beside the values
BT-549 = assay: Cytotoxicity against Homo sapiens (human) BT549 cells after 48 hr by SRB assay; details: BT-549, 48 h
SNB-19 = assay: Cytotoxicity against Homo sapiens (human) SNB19 cells after 48 hr by SRB assay; details: SNB-19, 48 h
SF-539 = assay: Cytotoxicity against Homo sapiens (human) SF539 cells after 48 hr by SRB assay; details: SF-539, 48 h
SF-295 = assay: Cytotoxicity against Homo sapiens (human) SF295 cells after 48 hr by SRB assay; details: SF-295, 48 h
SW-620 = assay: Cytotoxicity against Homo sapiens (human) SW620 cells after 48 hr by SRB assay; details: SW-620, 48 h
SF-268 [12] = assay: Cytotoxicity against Homo sapiens (human) SF268 cells after 48 hr by SRB assay; details: SF-268, 48 h
KM12 = assay: Cytotoxicity against Homo sapiens (human) KM12 cells after 48 hr by SRB assay; details: KM12, 48 h
HCT-15 = assay: Cytotoxicity against Homo sapiens (human) HCT15 cells after 48 hr by SRB assay; details: HCT-15, 48 h
HCC 2998 = assay: Cytotoxicity against Homo sapiens (human) HCC2998 cells after 48 hr by SRB assay; details: HCC 2998, 48 h
NCI-H522 = assay: Cytotoxicity against Homo sapiens (human) NCI-H522 cells after 48 hr by SRB assay; details: NCI-H522, 48 h
COLO 205 = assay: Cytotoxicity against Homo sapiens (human) COLO205 cells after 48 hr by SRB assay; details: COLO 205, 48 h
[13] = Cytotoxicity against Homo sapiens (human) NCI-H322 cells after 48 hr by SRB assay; details: NCI-H322, 48 h
NCI-H460 = assay: Cytotoxicity against Homo sapiens (human) NCI-H460 cells after 48 hr by SRB assay; details: NCI-H460, 48 h
HOP-92 = assay: Cytotoxicity against Homo sapiens (human) HOP92 cells after 48 hr by SRB assay; details: HOP-92, 48 h
EKVX = assay: Cytotoxicity against Homo sapiens (human) EKVX cells after 48 hr by SRB assay
HOP-62 = assay: Cytotoxicity against Homo sapiens (human) HOP62 cells after 48 hr by SRB assay; details: HOP-62, 48 h
CCRF-CEM = assay: Cytotoxicity against Homo sapiens (human) CCRF-CEM cells after 48 hr by SRB assay
MCF7 [14] = assay: Cytotoxicity against Homo sapiens (human) MCF7 cells assessed as cellular growth after 48 hr by Alamar blue assay; design: concentration or dose not given beside the values

## NS(=O)(=O)c1ccc(-n2nc3c(c2-c2cccs2)Cc2ccccc2-3)cc1
MDA-MB-435
  GI50: 11.8 µM
M14
  GI50: 17.2 µM
LOX IMVI
  GI50: 6.58 µM
MCF7 [1]
  GI50: > 100 µM
MDA-MB-231
  GI50: 17.3 µM
UO-31
  GI50: 12.2 µM
PC-3
  GI50: 20.6 µM
RXF 393
  GI50: 17.4 µM
786-0
  GI50: 17.1 µM
SK-OV-3
  GI50: 37.7 µM
OVCAR-5
  GI50: 18.5 µM
IGROV-1
  GI50: 2.49 µM
OVCAR-3
  GI50: 14.4 µM
UACC-62
  GI50: 11.5 µM
UACC-257
  GI50: 23.2 µM
SK-MEL-5
  GI50: 10.5 µM
SK-MEL-2
  GI50: 27.6 µM
SK-MEL-28
  GI50: 25.8 µM
[2]
  GI50: 26.1 µM
  TGI: 34.7 µM
[3]
  GI50: 22.3 µM
  TGI: 22.3 µM
[4]
  GI50: 13.3 µM
  TGI: 29.7 µM
[5]
  GI50: 20.6 µM
  TGI: 37.3 µM
[6]
  GI50: 17.5 µM
  TGI: 38.9 µM
[7]
  GI50: 31.8 µM
  TGI: 42 µM
[8]
  GI50: 14.9 µM
  TGI: 37.2 µM
[9]
  GI50: 21.7 µM
  TGI: 31.3 µM
[10]
  GI50: 3.3 µM
  TGI: 15.7 µM
SF-268 [11]
  Activity: <=32%
BT-549
  GI50: 12.4 µM
SNB-19
  GI50: 18.1 µM
SF-539
  GI50: 21.1 µM
SF-295
  GI50: 13.8 µM
SW-620
  GI50: 10.7 µM
SF-268 [12]
  GI50: > 100 µM
KM12
  GI50: 13.5 µM
HCT-15
  GI50: 12 µM
HCC 2998
  GI50: 12.8 µM
NCI-H522
  GI50: 12.4 µM
COLO 205
  GI50: 25.3 µM
[13]
  GI50: 11.9 µM
NCI-H460
  GI50: > 100 µM
HOP-92
  GI50: 5.56 µM
EKVX
  GI50: 11.9 µM
HOP-62
  GI50: 16.5 µM
CCRF-CEM
  GI50: 4.24 µM
MCF7 [14]
  Activity: <=32%

## NS(=O)(=O)c1ccc(N2N=C3c4ccccc4CC3C2c2cccs2)cc1 (stereo not given)
MDA-MB-435
  GI50: 19.3 µM
M14
  GI50: 26 µM
LOX IMVI
  GI50: 19.1 µM
MCF7 [1]
  GI50: > 100 µM
MDA-MB-231
  GI50: 16.8 µM
UO-31
  GI50: 39.4 µM
PC-3
  GI50: 22.1 µM
RXF 393
  GI50: 20.6 µM
786-0
  GI50: 17.6 µM
SK-OV-3
  GI50: 48 µM
OVCAR-5
  GI50: 26.6 µM
IGROV-1
  GI50: 30 µM
OVCAR-3
  GI50: 24.8 µM
UACC-62
  GI50: 21.8 µM
UACC-257
  GI50: 29.7 µM
SK-MEL-5
  GI50: 18 µM
SK-MEL-2
  GI50: > 100 µM
SK-MEL-28
  GI50: 75.6 µM
[2]
  GI50: 38.3 µM
  TGI: 52.1 µM
[3]
  GI50: 18.3 µM
  TGI: 48.6 µM
[4]
  GI50: 21.9 µM
  TGI: 43.7 µM
[5]
  GI50: 40.8 µM
  TGI: 79.6 µM
[6]
  GI50: 41.5 µM
  TGI: 51 µM
[7]
  GI50: 36.4 µM
  TGI: 70.3 µM
[8]
  GI50: 28 µM
  TGI: 74.5 µM
[9]
  GI50: 29.6 µM
  TGI: 45.5 µM
[10]
  GI50: 35.1 µM
  TGI: 95.5 µM
SF-268 [11]
  Activity: <=32%
BT-549
  GI50: 19.3 µM
SNB-19
  GI50: 34.4 µM
SF-539
  GI50: 17.4 µM
SF-295
  GI50: 16.2 µM
SW-620
  GI50: 35.4 µM
SF-268 [12]
  GI50: > 100 µM
KM12
  GI50: 15.7 µM
HCT-15
  GI50: 34.7 µM
HCC 2998
  GI50: 14.8 µM
NCI-H522
  GI50: 39.3 µM
COLO 205
  GI50: 58.9 µM
[13]
  GI50: 5.79 µM
NCI-H460
  GI50: > 100 µM
HOP-92
  GI50: 25.8 µM
EKVX
  GI50: 15.9 µM
HOP-62
  GI50: 16.9 µM
CCRF-CEM
  GI50: 31.8 µM
MCF7 [14]
  Activity: <=32%

## O=C(Nc1ccccc1)NS(=O)(=O)c1ccc(N2N=C3c4ccccc4CC3C2c2cccnc2)cc1 (stereo not given)
MDA-MB-435
  GI50: 21.4 µM
M14
  GI50: 24.9 µM
LOX IMVI
  GI50: 15.4 µM
MCF7 [1]
  GI50: 27 µM
MDA-MB-231
  GI50: 19.8 µM
UO-31
  GI50: 48.8 µM
PC-3
  GI50: 36.2 µM
RXF 393
  GI50: 45.3 µM
786-0
  GI50: 35.5 µM
SK-OV-3
  GI50: > 100 µM
OVCAR-5
  GI50: 26.8 µM
IGROV-1
  GI50: 16.2 µM
OVCAR-3
  GI50: 21.6 µM
UACC-62
  GI50: 17.8 µM
UACC-257
  GI50: 26.6 µM
SK-MEL-5
  GI50: 23.6 µM
SK-MEL-2
  GI50: 35.6 µM
SK-MEL-28
  GI50: 71.5 µM
[2]
  GI50: 42.4 µM
  TGI: 87.8 µM
[3]
  GI50: 36.4 µM
  TGI: 52.1 µM
[4]
  GI50: 31.7 µM
  TGI: 86.4 µM
[5]
  GI50: 48.6 µM
  TGI: 90.8 µM
[6]
  GI50: 30.8 µM
  TGI: 49.3 µM
[7]
  GI50: 54.8 µM
  TGI: 87.6 µM
[8]
  GI50: 26.2 µM
  TGI: 78.7 µM
[9]
  GI50: 30 µM
  TGI: 56.4 µM
[10]
  GI50: 26.5 µM
  TGI: 91.4 µM
SF-268 [11]
  Activity: <=32%
BT-549
  GI50: 30.6 µM
SNB-19
  GI50: 83.9 µM
SF-539
  GI50: 30.6 µM
SF-295
  GI50: 20.6 µM
SW-620
  GI50: 34 µM
SF-268 [12]
  GI50: 62.1 µM
KM12
  GI50: 24.8 µM
HCT-15
  GI50: 23.1 µM
HCC 2998
  GI50: 17.3 µM
NCI-H522
  GI50: 17.7 µM
COLO 205
  GI50: 31.1 µM
[13]
  GI50: 17.3 µM
NCI-H460
  GI50: 38.5 µM
HOP-92
  GI50: 74.9 µM
EKVX
  GI50: 27.8 µM
HOP-62
  GI50: 20.4 µM
CCRF-CEM
  GI50: 40.9 µM
MCF7 [14]
  Activity: <=32%
